Source: publication PMC10498496, “Design and Synthesis of Poly(2,2′-Bipyridyl) Ligands for Induction of Cell Death in Cancer Cells: Control of Anticancer Activity by Complexation/Decomplexation with Biorelevant Metal Cations” (Inorganic Chemistry, 2023)
Like-named read-outs stand apart in the source and are kept apart here. Numbered stars: 1 amine (or outer) side, 2 acyl side, 3 side chain; on linkers, the order of the positions; unused ones are H or OH. Bridge positions count the residues as written; N and C are the ends. Square brackets hold non-standard residues; d marks the D form. Peptide text beside a SMILES is read from it. I, II: the chains in the order shown. Actinocin(9to1) = Cc1c2oc3c(C)ccc(C(=O)[*:1])c3nc-2c(C(=O)[*:2])c(N)c1=O; NMeV = CN[C@H](C(=O)O)C(C)C; Sar = CNCC(=O)O

Legend:
MOLT-4 cells [1] = experiment: MTT assay, cytotoxicity against MOLT-4 cells; format: cell-based, human; conditions: Homo sapiens, read-out: EC50 against MOLT-4
Protocol: (§1) Second, we conducted the quantitative evaluation of the cytotoxicity of 1, 2, and 3 against various cancer cell lines by an MTT (3-(4,5-dimethylthiazol-2-yl)-2,5-diphenyltetrazolium bromide) assay. Jurkat, MOLT-4 (these two cell lines are human T-lymphocyte leukemia cells), and U937 (human lymphoma) cells (1.5 × 10^4 cells/well) were incubated in RPMI 1640 medium containing 10% FBS (fetal bovine serum) containing 1, 2, and 3 (0–25 μM) at 37 °C for 24 h, and then treated with the MTT reagent. A549 (human alveolar adenocarcinoma) and IMR-90 (normal human fetal lung fibroblast as model of normal cells) cells (1.5 × 10^4 cells/well) were incubated in DMEM (low glucose) with 10% FBS containing 1, 2, and 3 (0–25 μM), HeLa S3 (human epithelial carcinoma cells) cells (1.5 × 10^4 cells/well) were incubated in MEM with 10% FBS containing these ligands (0–25 μM) for 24 h at 37 °C and then treated with the MTT reagent.
(§2) • (a) Cytotoxic study. Jurkat cells, MOLT-4 cells, and U937 cells (1.5 × 10^5 cells/mL per one well) were incubated in 10% FBS RPMI 1640 medium containing 1 (0–25 μM), 2 (0–25 μM) , 3, cisplatin (0–100 μM), and actinomycin D (0–10 μM) under 5% CO2 at 37 °C for 24 h on 96 well plates (Watson), 0.5% MTT (3-(4,5-dimethyl-2-thiazolyl)-2,5-diphenyl-2H-tetrazolium bromide) reagent in PBS (10 μL) was then added to the cells. After incubation at 37 °C for 4 h, a formazan lysis solution (10% SDS in 0.01 N HCl) (100 μL) was added and the resulting solution was incubated overnight under the same conditions, followed by the measurement of absorbance at 570 nm with a microplate reader (BIO-RAD).

Jurkat cells [2] = experiment: MTT assay of Jurkat cells, effect of metal ions and incubation time on cytotoxicity of ligands; format: cell-based, human
Protocol: Next, we examined the effect of complexation of 1, 2, BAPTA, and BAPTA-AM with metal ions such as Cu(NO3)2, Zn(NO3)2, FeSO4, Co(NO3)2, and NiSO4 on their cytotoxicity against Jurkat cells. Mixture of ligands and metal ions were incubated for 1 h at 37 °C, and added to Jurkat cells for incubation for 12, 24, and 48 h at [ligand] = 0.78–25 μM and [M^2+] = 1.71–37.5 μM ([ligand]: [M^2+] = 1:1.5). After that, MTT assays were carried out, as shown in Figure S3 of the Supporting Information.
(§3) IMR-90 cells in DMEM medium with 10% FBS (1.5 × 10^5 cells/mL) were seeded in to 96 well plates and incubated for 24 h at 37 °C, MTT assays with poly(bpy) ligands and their metal complexes (0–100 μM), cisplatin (0–100 μM), and actinomycin D (0–10 μM) were performed following the same procedure described above. These experiments were carried out at least three times. • (b) MTT assay in the presence of a caspase inhibitor. Jurkat cells were pre-treated with Z-VAD-fmk (15 μM) for 3 h, a general caspases inhibitor, followed by the treatment with 1 (1 μM), BABTA-AM (12.5 μM) and cisplatin (50 μM), respectively, for 24 h, and then MTT assay was carried out as described above. • (c) For evaluation of the effect of metal ions on the cytotoxicity of 1, 2, BAPTA, and BAPTA-AM, these ligands were incubated with metal ions such as Cu(NO3)2, Zn(NO3)2, FeSO4, Co(NO3)2, and NiSO4 for 1 h, respectively, and added to Jurkat cells. The whole mixtures were incubated for 12, 24, and 48 h at [ligand] = 0.78–25 μM and at [M^2+] = 1.71–37.5 μM ([ligand]/[M^2+] = 1:1.5). The MTT assays were conducted as described above.

Jurkat cells [3] = experiment: MTT assay, cytotoxicity against Jurkat cells; format: cell-based, human; conditions: Homo sapiens, Jurkat
Protocol: as §1, §2

U937 cells = experiment: MTT assay, cytotoxicity against U937 cells; format: cell-based, human; conditions: Homo sapiens, read-out: EC50 against U937
Protocol: as §1, §2

IMR-90 cells = experiment: MTT assay, cytotoxicity against IMR-90 cells (model of normal cells); format: cell-based, human; conditions: Homo sapiens, read-out: EC50 against IMR-90
Protocol: as §1, §3

Jurkat cells [4] = experiment: MTT assay in the presence of the caspase inhibitor Z-VAD-fmk; format: cell-based, human; conditions: Z-VAD-fmk 15 μM 3 h, then compound 12.5 μM for 24 h
Excerpt: We, therefore, selected Jurkat cells to study the cell death mechanism in detail, in this work. Programmed cell death (PCD) is generally classified into several types such as apoptosis, necroptosis, paraptosis, autophagic cell death, and so on.[30]−[33] We hypothesized that 1 and 2 function as inducers of apoptosis, which is a type of PCD in cancer cells, based on the morphological change of Jurkat cells observed in Figure 1 and mechanism of chelation therapy proposed in the previous studies.[11]−[19] It is known that the caspases family are cysteine proteases that play important roles in apoptosis and necroptosis.[38] Therefore, the effect of Z-VAD-fmk, which is known as one of general caspase inhibitors, on the cell death induced by 1 and cisplatin was examined.
Figure 3 Effect of Z-VAD-fmk on the cell death in Jurkat cells induced by 1. Jurkat cells were incubated in RPMI in the presence of Z-VAD-fmk (15 μM) for 3 h and then treated with (a) 1 (1 μM) and (b) cisplatin (50 μM) for 24 h. Asterisks indicate significant difference with *(P ≤ 0.05).
To investigate the mechanism responsible for the BAPTA-AM-induced cell death in Jurkat cells, Jurkat cells were incubated with Z-VAD-fmk (15 μM) for 3 h, and then cells were treated with BAPTA-AM (12.5 μM) for 24 h followed by an MTT assay.
IMR-90 cells in DMEM medium with 10% FBS (1.5 × 10^5 cells/mL) were seeded in to 96 well plates and incubated for 24 h at 37 °C, MTT assays with poly(bpy) ligands and their metal complexes (0–100 μM), cisplatin (0–100 μM), and actinomycin D (0–10 μM) were performed following the same procedure described above. These experiments were carried out at least three times. • (b) MTT assay in the presence of a caspase inhibitor. […]

A549 cells = experiment: MTT assay, cytotoxicity against A549 cells; format: cell-based, human; conditions: Homo sapiens, A549, 37 °C, treated for 24 h
Protocol: as §1
(§4) HeLa S3 cells and A549 cells in MEM and DMEM medium with 10% FBS (1.5 × 10^5 cells/mL per one well) were seeded in to 96 well plates and incubated for 24 h, MTT assay of poly(bpy) ligands (0–25 μM), cisplatin (0–100 μM), and actinomycin D (0–10 μM) was performed according to the same procedure described above.

HeLa S3 cells = experiment: MTT assay, cytotoxicity against HeLa S3 cells; format: cell-based, human; conditions: Homo sapiens
Protocol: Second, we conducted the quantitative evaluation of the cytotoxicity of 1, 2, and 3 against various cancer cell lines by an MTT (3-(4,5-dimethylthiazol-2-yl)-2,5-diphenyltetrazolium bromide) assay. Jurkat, MOLT-4 (these two cell lines are human T-lymphocyte leukemia cells), and U937 (human lymphoma) cells (1.5 × 10^4 cells/well) were incubated in RPMI 1640 medium containing 10% FBS (fetal bovine serum) containing 1, 2, and 3 (0–25 μM) at 37 °C for 24 h, and then treated with the MTT reagent. […]
as §4

MOLT-4 cells [5] = system: MOLT-4 cells; parameters: method as in earlier work; conditions: ref 52 (Morita et al., Oncotarget 2013); read-out: EC50, cytotoxicity against MOLT-4 cells; cited from earlier work
[6] = MOLT-4, MTT, 37 °C, treated for 24 h
[7] = Homo sapiens, Jurkat, no metal, incubation 48 h (Figure 9, S4), read-out: EC50 against Jurkat cells, metal-free ligand
[8] = MTT, 37 °C, treated for 24 h, read-out: EC50 against Jurkat (converted)
[9] = U-937, MTT, 37 °C, treated for 24 h
[10] = IMR-90, MTT, 37 °C, treated for 24 h
[11] = HeLa S3, MTT, 37 °C, treated for 24 h, read-out: EC50 against HeLa S3 (converted)

Row | SMILES | EC50 (MOLT-4 cells [1]; [6]) [µM] | EC50 (Jurkat cells [2]; [7]) [µM] | EC50 (Jurkat cells [3]; [8]) [µM] | EC50 (U937 cells; [9]) [µM] | EC50 (IMR-90 cells; [10]) [µM] | EC50 (A549 cells) [µM] | EC50 (HeLa S3 cells; [11]) [µM] | melting point [°C] | also measured
1 | CC(=O)OCOC(=O)CN(CC(=O)OCOC(C)=O)c1ccccc1OCCOc1ccccc1N(CC(=O)OCOC(C)=O)CC(=O)OCOC(C)=O [BAPTA-AM, reference compound] | 13.2 ± 0.2 | 7.9 | 8.6 ± 0.3 | 7.1 ± 0.4 | > 50 | > 50 | > 50 | – | EC50 (Jurkat cells [2]; Homo sapiens, Jurkat, no metal, incubation 24 h (Figure S4), read-out: EC50 against Jurkat cells, ligand alone): 8.6 µM; cell viability of Jurkat cells after preincubation with Z-VAD-fmk (Jurkat cells [4]): considerably restored
2 | O=[N+]([O-])[O-].O=[N+]([O-])[O-].[Co+2] [Co^2+, Co(NO3)2] | – | – | – | – | – | – | – | – | EC50 (Jurkat cells [2]; no ligand, incubation 48 h (Figure 9a), read-out: EC50 of ligand-free metal ion against Jurkat cells): 13 µM
3 | c1ccc(CN(CCN(Cc2ccccn2)Cc2ccccn2)Cc2ccccn2)nc1 [TPEN, N,N,N′,N′-tetra(2-pyrydylmethyl)ethylene diamine] | – | – | – | – | – | – | – | – | EC50 (MOLT-4 cells [5]): ~8 µM
4 | Cc1c2oc3c(C)ccc(C(=O)N[C@@H]4C(=O)N[C@H](C(C)C)C(=O)N5CCC[C@H]5C(=O)N(C)CC(=O)N(C)[C@@H](C(C)C)C(=O)O[C@@H]4C)c3nc-2c(C(=O)N[C@@H]2C(=O)N[C@H](C(C)C)C(=O)N3CCC[C@H]3C(=O)N(C)CC(=O)N(C)[C@@H](C(C)C)C(=O)O[C@@H]2C)c(N)c1=O [actinomycin D, reference compound] (I: T[dV]P[Sar][NMeV] / II: T[dV]P[Sar][NMeV]; ester I:1-I:C, II:1-II:C; linker I:N-II:N via Actinocin(9to1)) | – | – | – | – | – | – | – | – | EC50 (MOLT-4 cells [1]; MOLT-4, 24 h): 0.003 µM; EC50 (Jurkat cells [3]; 24 h, read-out: EC50 against Jurkat): 0.005 µM; EC50 (U937 cells; U-937, 24 h): 0.051 µM; EC50 (IMR-90 cells; IMR-90, 24 h): 53 ± 2.6 µM; EC50 (HeLa S3 cells; HeLa S3, 24 h, read-out: EC50 against HeLa S3): > 10 µM
5 | c1ccc(-c2ccc(OCc3cccc(COc4ccc(-c5ccccn5)nc4)c3)cn2)nc1 [compound 2, 1,3-Bis(([2,2′-Bipyridin]-5-yloxy)methyl)benzene] | 0.64 ± 0.55 | ~0.1 | 0.77 ± 0.56 | 0.59 ± 0.33 | > 100 | 9.5 ± 1.2 | 15 ± 1.34 | 135 to 136 | EC50 (Jurkat cells [2]; Homo sapiens, Jurkat, no metal, incubation 12 h (Figure 9), read-out: EC50 against Jurkat cells, metal-free ligand): ~2 µM
6 | c1ccc(COc2ccc(-c3ccccn3)nc2)cc1 [compound 3, 5-(Benzyloxy)-2,2′-bipyridine] | 8.7 ± 0.89 | – | 13 ± 0.34 | 5.6 ± 0.77 | 75 ± 0.1 | 11 ± 0.55 | 15 ± 0.37 | 85 to 87 | –
